# Results from paper PMC11784839, “Monoaminergic neurotransmitters are bimodal effectors of tau aggregation” (Science Advances, 2025).
# Biological target: tau (Homo sapiens, UniProt P10636)
# Assay: MCE Phenols Library screening, tau biosensor cell seeding assay (AvZ)
# Assay type: cell-based
# Conditions: for Z repl 1 / Z Repl 2: Z score; for Z repl 1 / raw data 1: replicate 1; for Z Repl 2 / raw data 2: replicate 2; for AvZ (average z score of seeding, SDs from the mean level of seeding): 10 μM phenol in cell cultures, AD brain homogenate preincubated 16 hours, two biological replicates, positive = catalyzes seeding, negative = inhibits
# [1] = average Z score of the two replicates, tau seeding
# [2] = average Z score of the two replicates, MCE Phenols Library screen
# [3] = average puncta of the two replicates
# [4] = average Z score of two replicates, Phenols Library screen
# [5] = average Z score of the two replicates, tau biosensor seeding, MCE Phenols Library screen
# tau, sequence (P10636 623-695 limits assumed): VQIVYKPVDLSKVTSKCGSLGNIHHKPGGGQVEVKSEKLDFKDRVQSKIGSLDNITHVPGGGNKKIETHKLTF
Z repl 1,Z Repl 2,av Z [1],av puncta (average of raw data 1 and 2),raw data 1 (puncta),raw data 2 (puncta),av Z [2],av puncta [3],av Z [4],raw data 1 (raw puncta),raw data 2 (raw puncta),SMILES,av Z [5],"AvZ (average z score of seeding, SDs from the mean level of seeding)"
0.407,0.408,0.407,24178.5,31229.6,17127.3,,,,,,OC[C@H]1O[C@@H](Oc2cc(/C=C/c3cc(O)cc(O)c3)ccc2O)[C@H](O)[C@@H](O)[C@@H]1O [Piceatannol 3'-O-glucoside],,
-1.302,,,5506.01,10717.8,294.245,-1.235,,,,,Oc1cc(O)cc(/C=C/c2ccc(O)c(O)c2)c1 [Piceatannol],,
0.2,-0.125,,20089.3,28746.2,11432.4,,,0.037,,,CC(=O)O[C@H]1C(=O)c2c(O)cc(O)cc2O[C@@H]1c1ccccc1 [Pinobanksin 3-acetate],,
-0.797,-0.047,,,,,-0.422,14520.5,,16779.4,12261.6,COc1cc(O)c2c(c1)O[C@H](c1ccccc1)CC2=O [Pinostrobin],,
0.333,-0.026,0.153,21412.5,30340.8,12484.2,,,,,,O=C1C[C@@H](c2cc(O)c(O)c(O[C@@H]3O[C@H](CO)[C@@H](O)[C@H](O)[C@H]3O)c2)Oc2cc(O)cc(O)c21 [Plantagoside],,
-0.439,0.604,,20150.3,21083.3,19217.2,,,0.083,,,COc1cc2c(=O)c3c(O)c([C@@H]4O[C@H](CO[C@@H]5OC[C@](O)(CO)[C@H]5O)[C@@H](O)[C@H](O)[C@H]4O)c(O)cc3oc2cc1O [Polygalaxanthone III],,
0.114,0.572,0.343,23298.5,27718.4,18878.6,,,,,,Oc1cc(O)c2c(c1)O[C@@]1(c3ccc(O)c(O)c3)Oc3cc(O)c4c(c3[C@@H]2[C@H]1O)O[C@H](c1ccc(O)c(O)c1)[C@@H](O)C4 [Procyanidin A1],,
-0.531,-0.919,,,19975.5,2954.48,-0.725,11465,,,,Oc1cc(O)c2c(c1)O[C@@]1(c3ccc(O)c(O)c3)Oc3cc(O)c4c(c3[C@@H]2[C@H]1O)O[C@H](c1ccc(O)c(O)c1)[C@H](O)C4 [Procyanidin A2],,
-0.678,-0.711,,,18204.5,5175.99,-0.695,11690.3,,,,Oc1cc(O)c2c(c1)O[C@H](c1ccc(O)c(O)c1)[C@H](O)[C@H]2c1c(O)cc(O)c2c1O[C@H](c1ccc(O)c(O)c1)[C@H](O)C2 [Procyanidin B2],,
0.76,1.6,,32664.3,35473.6,29854.9,,,,,,Oc1cc(O)c2c(c1)O[C@H](c1ccc(O)c(O)c1)[C@H](O)[C@H]2c1c(O)cc(O)c2c1O[C@H](c1ccc(O)c(O)c1)[C@H](O)[C@H]2c1c(O)cc(O)c2c1O[C@H](c1ccc(O)c(O)c1)[C@H](O)C2 [Procyanidin C1],1.18,
-0.716,-0.982,,10013.9,17751.7,2276.1,,,,,,CCCOC(=O)c1cc(O)c(O)c(O)c1 [Propyl gallate],,-0.849
-0.894,-0.283,,,15614.9,9745.34,,12680.1,,,,O=Cc1ccc(O)c(O)c1 [Protocatechualdehyde],,-0.588
-0.022,-0.809,,,,,-0.415,15106.6,,26082.6,4130.62,OC[C@]1(O)COc2cc(O)ccc2-c2cc(O)c(O)cc2C1 [Protosappanin B],,
-0.134,0.469,0.168,21257.9,24743.3,17772.6,,,,,,O=C1C[C@@H](c2ccc(O)cc2)Oc2cc(O[C@@H]3O[C@H](CO)[C@@H](O)[C@H](O)[C@H]3O)cc(O)c21 [Prunin],,
-0.975,-0.298,,,14642.4,9586.42,-0.636,12114.4,,,,COc1cc(/C=C/c2ccc(O)cc2)cc(OC)c1 [Pterostilbene],,
-0.042,-0.868,,,,,-0.455,14673.6,,25849,3498.14,O=c1c(-c2ccc(O)cc2)coc2c([C@@H]3O[C@H](CO[C@@H]4OC[C@@H](O)[C@H](O)[C@H]4O)[C@@H](O)[C@H](O)[C@H]3O)c(O)ccc12 [Puerarin 6''-O-Xyloside],,

SMILES,Z repl 1,Z Repl 2,av Z [1],av puncta (average of raw data 1 and 2),raw data 1 (puncta),raw data 2 (puncta),av Z [2],av puncta [3],av Z [4],raw data 1 (raw puncta),raw data 2 (raw puncta),av Z [5],"AvZ (average z score of seeding, SDs from the mean level of seeding)"
COc1cc(C(=O)O[C@H]2[C@@H]3C=CO[C@@H](O[C@@H]4O[C@H](CO)[C@@H](O)[C@H](O)[C@H]4O)[C@@H]3[C@@]3(CO)O[C@@H]23)ccc1O [Picroside II],-0.222,-0.853,,,23683.5,3659.57,-0.537,13671.5,,,,,
COc1cc(O)cc(/C=C/c2ccc(O)cc2)c1 [Pinostilbene],0.091,-0.704,,,,,-0.306,16345.6,,27446.2,5245.02,,
CC1=CC(=O)c2c(O)cccc2C1=O [Plumbagin],-2.104,-0.904,,2099.32,1092.19,3106.45,-1.504,,,,,,
CCCOC(=O)c1ccc(O)cc1 [Propylparaben],0.084,0.893,,24829.8,27354.6,22304.9,,,,,,,0.488
O=C(O)c1ccc(O)c(O)c1 [Protocatechuic acid],-0.928,-0.202,,,15212.3,10612.8,,12912.5,,,,,-0.565
Cc1cc(O)c2c(=O)c3c(O)cc(O)c4c5c(O)cc(O)c6c(=O)c7c(O)cc(C)cc7c(c65)c(c2c1)c34 [Protohypericin],-0.657,-0.804,,,18463.4,4183.21,-0.73,11323.3,,,,,
COc1cc(O)c2c(=O)c(-c3ccc(O)cc3)coc2c1 [Prunetin],3.008,2.297,,49877.5,62461.3,37293.6,,,,,,2.652,
